Tested on: Enterococcus faecalis (ATCC 29212) (EFAECL)
Assay: Agar Well Diffusion Assay (Kirby-Bauer disks), zone of inhibition
Assay type: cell-based
Conditions: control antibiotic K-B disk
Method: Isolates were subcultured the day before the Agar Well Diffusion Assay was performed. On the day of the assay, a bacterial suspension (0.08-0.12 MacFarland units) of each bacteria isolate was made in Trypticase Soy Broth (TSB), and these suspensions were used to plate a lawn of bacterial organisms on Mueller-Hinton agar or Mueller-Hinton sheep's blood agar. […] The next day, the width of the zone of growth inhibition surrounding each K-B disk was recorded (in mm). The larger the number, the greater the zone of inhibition, and the greater the inhibition of growth of the target organisms.
Therefore, all dilutions were made into DMSO and a K-B disk containing 25 uL DMSO was included in all experiments as a vehicle control.
When assessing antibiotic effects in a K-B type test, the minimum zone of inhibition for considering a positive test varies depending on the antibiotic tested with anything more than 0 mm considered positive in some cases or as much as 10 mm or more needed for others.

Compound | Zone of Inhibition
CC1(C)S[C@@H]2[C@H](NC(=O)[C@H](N)c3ccccc3)C(=O)N2[C@H]1C(=O)O [AMP, Ampicillin] | AMP 8 MM
Gentamicin [GM] | GM 5 MM
